According to PubChem BioAssay (NCI):
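Cells were grown in 96-well plates and exposed to each compound for 48 hours at five concentrations; endpoints were interpolated linearly between bracketing concentrations, or set to the highest concentration if not reached. TGI: concentration producing complete growth inhibition.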

Columns and labels:
Experiment in all cases: DTP human tumour cell line panel, 48 h
SF-268 CNS = system: SF-268 CNS
HCT-15 colon = system: HCT-15 colon
HCT-116 colon = system: HCT-116 colon
OVCAR-3 ovarian = system: OVCAR-3 ovarian
UO-31 renal = system: UO-31 renal
UACC-257 melanoma = system: UACC-257 melanoma
M14 melanoma = system: M14 melanoma
BT-549 breast = system: BT-549 breast
SNB-75 CNS = system: SNB-75 CNS
CCRF-CEM leukemia = system: CCRF-CEM leukemia
MALME-3M melanoma = system: MALME-3M melanoma
HL-60(TB) leukemia = system: HL-60(TB) leukemia
RXF 393 renal = system: RXF 393 renal
T-47D breast = system: T-47D breast
SK-OV-3 ovarian = system: SK-OV-3 ovarian
NCI-H23 lung = system: NCI-H23 lung
ACHN renal = system: ACHN renal
PC-3 prostate = system: PC-3 prostate
RPMI-8226 leukemia = system: RPMI-8226 leukemia
MDA-N = system: MDA-N
EKVX NSCLC = system: EKVX NSCLC
SW-620 colon = system: SW-620 colon
KM12 colon = system: KM12 colon
LOX IMVI melanoma = system: LOX IMVI melanoma
OVCAR-8 ovarian = system: OVCAR-8 ovarian
MOLT-4 leukemia = system: MOLT-4 leukemia
SF-295 CNS = system: SF-295 CNS
MDA-MB-231 breast = system: MDA-MB-231 breast
TK-10 renal = system: TK-10 renal
IGROV1 ovarian = system: IGROV1 ovarian
SK-MEL-28 melanoma = system: SK-MEL-28 melanoma
K-562 leukemia = system: K-562 leukemia
A549 NSCLC = system: A549 NSCLC
HT29 colon = system: HT29 colon
CAKI-1 renal = system: CAKI-1 renal
HOP-62 NSCLC = system: HOP-62 NSCLC
MDA-MB-435 = system: MDA-MB-435
SR leukemia = system: SR leukemia
SNB-19 CNS = system: SNB-19 CNS
HCC-2998 colon = system: HCC-2998 colon
786-0 renal = system: 786-0 renal
NCI-H522 lung = system: NCI-H522 lung
OVCAR-5 ovarian = system: OVCAR-5 ovarian
NCI-H226 lung = system: NCI-H226 lung
UACC-62 melanoma = system: UACC-62 melanoma
DU-145 prostate = system: DU-145 prostate
SF-539 CNS = system: SF-539 CNS
NCI/ADR-RES ovarian = system: NCI/ADR-RES ovarian
U251 CNS = system: U251 CNS
SN12C renal = system: SN12C renal
MCF7 breast = system: MCF7 breast
SK-MEL-5 melanoma = system: SK-MEL-5 melanoma
COLO 205 colon = system: COLO 205 colon

SMILES: C=CCN(Cc1ccncc1)C(=O)C(O)(c1ccccc1)c1ccccc1
- TGI (SF-268 CNS): > 100 µM
- TGI (HCT-15 colon): > 100 µM
- TGI (HCT-116 colon): > 100 µM
- TGI (OVCAR-3 ovarian): > 100 µM
- TGI (UO-31 renal): 56.5 µM
- TGI (UACC-257 melanoma): > 100 µM
- TGI (M14 melanoma): > 100 µM
- TGI (BT-549 breast): > 100 µM
- TGI (SNB-75 CNS): > 100 µM
- TGI (CCRF-CEM leukemia): > 100 µM
- TGI (MALME-3M melanoma): > 100 µM
- TGI (HL-60(TB) leukemia): > 100 µM
- TGI (RXF 393 renal): > 100 µM
- TGI (T-47D breast): > 100 µM
- TGI (SK-OV-3 ovarian): > 100 µM
- TGI (NCI-H23 lung): > 100 µM
- TGI (ACHN renal): > 100 µM
- TGI (PC-3 prostate): > 100 µM
- TGI (RPMI-8226 leukemia): 78.6 µM
- TGI (MDA-N): > 100 µM
- TGI (EKVX NSCLC): > 100 µM
- TGI (SW-620 colon): > 100 µM
- TGI (KM12 colon): > 100 µM
- TGI (LOX IMVI melanoma): > 100 µM
- TGI (OVCAR-8 ovarian): > 100 µM
- TGI (MOLT-4 leukemia): > 100 µM
- TGI (SF-295 CNS): > 100 µM
- TGI (MDA-MB-231 breast): > 100 µM
- TGI (TK-10 renal): > 100 µM
- TGI (IGROV1 ovarian): > 100 µM
- TGI (SK-MEL-28 melanoma): > 100 µM
- TGI (K-562 leukemia): > 100 µM
- TGI (A549 NSCLC): > 100 µM
- TGI (HT29 colon): > 100 µM
- TGI (CAKI-1 renal): > 100 µM
- TGI (HOP-62 NSCLC): > 100 µM
- TGI (MDA-MB-435): > 100 µM
- TGI (SR leukemia): > 100 µM
- TGI (SNB-19 CNS): > 100 µM
- TGI (HCC-2998 colon): > 100 µM
- TGI (786-0 renal): > 100 µM
- TGI (NCI-H522 lung): > 100 µM
- TGI (OVCAR-5 ovarian): > 100 µM
- TGI (NCI-H226 lung): > 100 µM
- TGI (UACC-62 melanoma): > 100 µM
- TGI (DU-145 prostate): > 100 µM
- TGI (SF-539 CNS): > 100 µM
- TGI (NCI/ADR-RES ovarian): 37.4 µM
- TGI (U251 CNS): > 100 µM
- TGI (SN12C renal): > 100 µM
- TGI (MCF7 breast): > 100 µM
- TGI (SK-MEL-5 melanoma): > 100 µM
- TGI (COLO 205 colon): > 100 µM
